Results reported in ChEMBL document CHEMBL1201862, “PubChem BioAssay data set” (2004).
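All cell lines were grown in 96-well plates and treated with compound for 48 hours. At the GI50, growth is halved.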 The source made the active and inactive calls. No stated cut-off is given here; in the data, active = GI50 up to about 1.1 µM and inactive = higher. Where a SMILES comes first, the peptide text is derived from it. The star is where a group is joined. Fmoc = O=C(OCC1c2ccccc2-c2ccccc21)*; Boc = CC(C)(C)OC(=O)*

What was measured:
Test in all cases: growth of human tumour cells (NCI), 48 h
[1] = system: SF-539
[2] = system: CAKI-1
[3] = system: MDA-MB-231
[4] = system: PC-3
[5] = system: HCT-116
[6] = system: Hs-578T
[7] = system: SK-OV-3
[8] = system: HCC 2998
[9] = system: MOLT-4
[10] = system: RXF 393
[11] = system: M14
[12] = system: NCI-H522
[13] = system: EKVX
[14] = system: SF-268
[15] = system: SW-620
[16] = system: U-251
[17] = system: UACC-62
[18] = system: RPMI-8226
[19] = system: A498

Measured: GI50

O=C1CCC[C@]2(CCC[C@@H](O)C2)N1
inactive: [1] > 100 µM | [2] > 100 µM | [3] > 100 µM | [4] > 100 µM | [5] > 100 µM | [6] > 100 µM | [7] > 100 µM | [8] > 100 µM | [9] > 10 µM | [10] > 100 µM | [11] > 100 µM | [12] > 100 µM | [13] > 100 µM | [14] > 100 µM

O=[N+]([O-])c1ccc(-c2nc(/C=N/N3CCCCC3)cs2)o1
inactive: [15] > 100 µM | [16] > 100 µM | [1] > 100 µM | [2] > 100 µM | [3] 48.4 µM | [4] > 100 µM | [5] 34.1 µM | [6] > 100 µM | [7] > 100 µM | [17] 31.9 µM | [9] 26.5 µM | [18] 19.1 µM | [10] > 100 µM | [11] 37.4 µM | [12] 45.2 µM | [13] > 100 µM | [14] > 100 µM

O=C1NC(=S)NC1C(Cc1ccccc1)c1ccco1 (centres undefined)
inactive: [15] > 100 µM | [16] > 100 µM | [1] > 100 µM | [2] > 100 µM | [3] > 100 µM | [5] > 100 µM | [6] > 100 µM | [7] > 100 µM | [8] > 100 µM | [19] > 100 µM | [9] 81.7 µM | [18] 84.9 µM | [10] > 100 µM | [11] > 100 µM | [12] > 100 µM | [13] > 100 µM | [14] > 100 µM

COc1cc(C=C2C(=O)NC(=S)NC2=O)cc(OC)c1OC
inactive: [15] > 100 µM | [16] > 100 µM | [1] > 100 µM | [2] > 100 µM | [3] > 100 µM | [4] > 100 µM | [5] > 100 µM | [6] > 100 µM | [7] > 100 µM | [8] > 100 µM | [17] > 100 µM | [9] > 100 µM | [18] > 100 µM | [10] > 100 µM | [11] > 100 µM | [13] > 100 µM | [14] > 100 µM

CCCCCCSCC/C(C)=N\OC
inactive: [15] > 100 µM | [16] > 100 µM | [1] > 100 µM | [2] > 100 µM | [3] > 100 µM | [4] > 100 µM | [5] > 100 µM | [7] > 100 µM | [8] > 100 µM | [19] > 100 µM | [17] > 100 µM | [9] > 100 µM | [18] > 100 µM | [10] > 100 µM | [11] > 100 µM | [12] > 100 µM | [13] > 100 µM | [14] > 100 µM

CCN1C(=O)C(=C/C=C/c2ccc([N+](=O)[O-])cc2)C(=O)N(CC)C1=S
inactive: [15] 19.1 µM | [16] 18.5 µM | [1] 21.2 µM | [2] 26.4 µM | [3] 21.3 µM | [4] 19.3 µM | [5] 17.6 µM | [6] 15.3 µM | [7] > 100 µM | [8] 43.4 µM | [17] 18.9 µM | [9] 29.6 µM | [18] 30.8 µM | [10] 17 µM | [11] 29 µM | [13] 21 µM | [14] 19.3 µM

N#Cc1sc2c(c1OC(=O)c1cccs1)c(=O)n(-c1ccccc1)c(=S)n2-c1ccccc1
inactive: [15] 21.8 µM | [16] 20.2 µM | [1] 22.4 µM | [2] 32.4 µM | [3] 20.1 µM | [4] 18 µM | [5] 15.2 µM | [6] 15.2 µM | [7] 29.6 µM | [17] 17.2 µM | [9] 19.4 µM | [18] 18.7 µM | [10] 14.9 µM | [11] 19.1 µM | [12] 16.4 µM | [13] 33.2 µM | [14] 30.1 µM

CCC1CC(C)=CCN1S(=O)(=O)c1ccc(C)cc1 (centres undefined)
inactive: [15] > 10 µM | [1] 14.5 µM | [2] 6.9 µM | [5] 9.82 µM | [7] 24.5 µM | [19] 42.6 µM | [17] 15.5 µM | [9] 28.2 µM | [18] 3.89 µM | [11] 22 µM | [12] 16.6 µM | [13] 31.8 µM | [14] 15.9 µM

CC(C)(C)OC(=O)NCCCCC(NC(=O)C(Cc1c[nH]c2ccccc12)NC(=O)OCC1c2ccccc2-c2ccccc21)C(=O)O (centres undefined) (Fmoc-Trp-Lys(Boc)-OH; configuration not given here)
inactive: [15] 48.3 µM | [16] 17.1 µM | [1] 42.3 µM | [2] 17.1 µM | [3] 27.5 µM | [4] 34.8 µM | [5] 32 µM | [6] 30.3 µM | [7] 5 µM | [8] 40.6 µM | [17] 20.9 µM | [9] 19.8 µM | [18] 25 µM | [10] 59.4 µM | [11] 77.3 µM | [13] > 100 µM | [14] 32.5 µM

CCOC(=O)/C(=C/c1ccccc1)N(CC)CC
inactive: [15] > 100 µM | [16] > 100 µM | [1] > 100 µM | [2] > 100 µM | [5] > 100 µM | [7] > 100 µM | [8] > 100 µM | [19] > 100 µM | [17] > 100 µM | [9] > 100 µM | [18] > 100 µM | [11] > 100 µM | [12] > 100 µM | [13] > 100 µM | [14] > 100 µM

Cc1oc2nc(N(C)C)n3nnnc3c2c1C
inactive: [15] > 100 µM | [16] > 100 µM | [1] > 100 µM | [2] > 100 µM | [3] > 100 µM | [5] > 100 µM | [6] > 100 µM | [7] 85.7 µM | [8] > 100 µM | [19] 76.2 µM | [17] 49.9 µM | [9] > 100 µM | [18] > 100 µM | [10] 57.4 µM | [11] > 100 µM | [12] > 100 µM | [13] > 100 µM | [14] > 100 µM

Cc1cc(O)c2c(c1)C(C1OC(CO)C(O)C(O)C1O)c1cc(O)cc(O)c1C2=O (centres undefined)
inactive: [15] > 100 µM | [16] > 100 µM | [3] > 100 µM | [4] > 100 µM | [5] > 100 µM | [7] > 100 µM | [8] > 100 µM | [19] > 100 µM | [17] > 100 µM | [9] > 100 µM | [18] > 100 µM | [11] > 100 µM | [13] > 100 µM | [14] > 100 µM
